System: Schwanniomyces castellii strain ATCC 26077
Assay: Mutagenic treatment, mutants resistant to 2-deoxy-glucose on potato starch agar
Type: cell-based, Schwanniomyces castelli
Settings: EMS treatment
Procedure: The present invention also relates to the production of a novel strain of Schwanniomyces castellii. The mutant strain Schwanniomyces castellii NCYC 1461 was produced by treating a known strain, Schwanniomyces castellii ATCC 26077 with known mutagenic agents. The survivors were cultured on potato starch agar in the presence of concentrations of deoxyglucose at least as high as 10-^3 molar. […] Accordingly, the selection of the mutant strain is particularly desirable in the production of the above-mentioned culture filtrate having amylolytic enzyme activity. By means of such a selection there is a large proportionate increase in the relative amount of alpha-amylase present in the clarified culture filtrate. This novel strain of Schwanniomyces castellii is available upon request from the Yeast Collection of the National Collection of Yeast Cultures Depository ("NCYC"), Food Research Institute, Norwich, Norfolk, England. The ascession number of that organism in the above-mentioned repository is NCYC 1461. Schwanniomyces castellii strain NCYC 1461 is one of a number of mutant strains of Schwanniomyces castellii that .were produced by way of the above-outlined mutagenic treatment of Schwanniomyces castellii strain ATCC 26077. The particulars of the mutagenic treatments are detailed below in Table III which indicates the time of exposure, the percent survival rate, and the frequency of mutation for both of the treatments employed.

Which “% Survival” value (time of exposure 30 min) does the source give for `CCOS(C)(=O)=O` [EMS] here?
Its value is 66%.

And the Frequency of mutation (time of exposure 30 min)?
The Frequency of mutation was 10^-3.

And the “% Survival” value (time of exposure 60 min)?
Its value is 14%.

What about the Frequency of mutation (time of exposure 60 min) of the same molecule?
Its Frequency of mutation is 2×10^-4.

Source: patent EP0125615B1, “Schwanniomyces castellii strains and brewing process” (LABATT BREWING COMPANY LIMITED, priority 1983, dated 1984)
